# Values quoted from earlier work, collected in PMC9906001 (Pulmonary Circulation, 2023).
# Tested on: Japanese patients with pulmonary arterial hypertension
# Settings: lowest value among 5, 15, or 30 min after inhalation at Week 12, IBUKI study; cited from earlier work
smiles,measurement,value
CC#CCC(C)[C@H](O)/C=C/[C@@H]1[C@H]2C/C(=C/CCCC(=O)O)C[C@H]2C[C@H]1O (stereo partly shown) [iloprost],Best change from baseline in mPAP,−6.75 mmHg
